According to patent US10526316B2, “Quinoxaline and pyridopyrazine derivatives as PI3Kβ inhibitors” (Janssen Pharmaceutica NV, priority 2015, dated 2020):
Read-outs that look alike come from different tables or passages of the source.

Experiments:
[1] = system: Akt phosphorylated at Ser473 in PC-3 cells; experiment: Cellular assay: phosphorylation of Akt at Ser473 in PC-3 cells (MSD ELISA); type: cell-based; conditions: PC-3 cells, 60 min compound incubation, MSD ELISA, read-out: IC50 pAkt_S473
Summary of the method: (§1)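 Phospho-Akt in whole-cell lysates is quantified by electrochemiluminescent immunoassay using phospho-site capture and total-Akt detection antibodies.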

[2] = system: Akt phosphorylated at Thr308 in PC-3 cells; experiment: Cellular assay: phosphorylation of Akt at Thr308 in PC-3 cells (MSD ELISA); type: cell-based; conditions: PC-3 cells, 60 min compound incubation, MSD ELISA, read-out: IC50 pAkt_Thr308
Summary of the method: as §1

PI3Kδ = biological target: T1, PI3Kδ (Homo sapiens, UniProt O00329); experiment: Enzyme binding assay (KINOMEscan, DiscoveRx); conditions: PIK3Cδ_h
T1 construct: purchased DiscoveRx Corporation, San Diego (contract service, KINOMEscan)
T1 sequence (O00329 1-1044): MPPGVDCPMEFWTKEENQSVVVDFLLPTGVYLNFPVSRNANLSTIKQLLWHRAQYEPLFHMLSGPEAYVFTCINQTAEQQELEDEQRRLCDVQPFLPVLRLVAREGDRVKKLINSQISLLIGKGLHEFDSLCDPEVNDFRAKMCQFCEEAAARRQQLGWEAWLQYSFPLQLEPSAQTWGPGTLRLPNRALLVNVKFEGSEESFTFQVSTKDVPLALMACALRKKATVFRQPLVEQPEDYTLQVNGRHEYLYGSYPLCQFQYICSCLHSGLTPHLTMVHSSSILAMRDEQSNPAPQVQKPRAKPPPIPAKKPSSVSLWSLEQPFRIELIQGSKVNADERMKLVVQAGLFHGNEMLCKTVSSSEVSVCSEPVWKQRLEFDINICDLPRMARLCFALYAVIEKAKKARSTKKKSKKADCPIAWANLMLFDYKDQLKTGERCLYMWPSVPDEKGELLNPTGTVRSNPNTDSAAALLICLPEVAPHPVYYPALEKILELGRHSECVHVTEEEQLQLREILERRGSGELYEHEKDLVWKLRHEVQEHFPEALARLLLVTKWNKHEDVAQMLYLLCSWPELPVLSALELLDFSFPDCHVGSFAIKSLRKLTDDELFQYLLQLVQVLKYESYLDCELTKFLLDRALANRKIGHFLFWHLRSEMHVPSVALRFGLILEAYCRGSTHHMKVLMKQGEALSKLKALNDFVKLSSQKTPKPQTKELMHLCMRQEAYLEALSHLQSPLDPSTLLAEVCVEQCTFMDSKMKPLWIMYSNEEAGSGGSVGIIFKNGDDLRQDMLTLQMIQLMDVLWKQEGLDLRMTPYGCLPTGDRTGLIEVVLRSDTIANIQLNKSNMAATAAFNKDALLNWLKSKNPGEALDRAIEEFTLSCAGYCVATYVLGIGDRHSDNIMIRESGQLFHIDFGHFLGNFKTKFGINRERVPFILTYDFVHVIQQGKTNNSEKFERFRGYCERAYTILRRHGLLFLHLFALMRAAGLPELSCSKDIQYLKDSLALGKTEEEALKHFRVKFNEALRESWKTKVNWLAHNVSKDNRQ
Summary of the method: (§2)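 Kinase binding measured via KINOMEscan, reported as affinity.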

PI3Kβ = biological target: T2, PI3Kβ (Homo sapiens, UniProt P42338); experiment: Enzyme binding assay (KINOMEscan, DiscoveRx); conditions: PIK3Cβ_h, read-out: Kd PIK3Cβ_h
T2 construct: purchased DiscoveRx Corporation, San Diego (contract service, KINOMEscan)
T2 sequence (P42338 whole entry): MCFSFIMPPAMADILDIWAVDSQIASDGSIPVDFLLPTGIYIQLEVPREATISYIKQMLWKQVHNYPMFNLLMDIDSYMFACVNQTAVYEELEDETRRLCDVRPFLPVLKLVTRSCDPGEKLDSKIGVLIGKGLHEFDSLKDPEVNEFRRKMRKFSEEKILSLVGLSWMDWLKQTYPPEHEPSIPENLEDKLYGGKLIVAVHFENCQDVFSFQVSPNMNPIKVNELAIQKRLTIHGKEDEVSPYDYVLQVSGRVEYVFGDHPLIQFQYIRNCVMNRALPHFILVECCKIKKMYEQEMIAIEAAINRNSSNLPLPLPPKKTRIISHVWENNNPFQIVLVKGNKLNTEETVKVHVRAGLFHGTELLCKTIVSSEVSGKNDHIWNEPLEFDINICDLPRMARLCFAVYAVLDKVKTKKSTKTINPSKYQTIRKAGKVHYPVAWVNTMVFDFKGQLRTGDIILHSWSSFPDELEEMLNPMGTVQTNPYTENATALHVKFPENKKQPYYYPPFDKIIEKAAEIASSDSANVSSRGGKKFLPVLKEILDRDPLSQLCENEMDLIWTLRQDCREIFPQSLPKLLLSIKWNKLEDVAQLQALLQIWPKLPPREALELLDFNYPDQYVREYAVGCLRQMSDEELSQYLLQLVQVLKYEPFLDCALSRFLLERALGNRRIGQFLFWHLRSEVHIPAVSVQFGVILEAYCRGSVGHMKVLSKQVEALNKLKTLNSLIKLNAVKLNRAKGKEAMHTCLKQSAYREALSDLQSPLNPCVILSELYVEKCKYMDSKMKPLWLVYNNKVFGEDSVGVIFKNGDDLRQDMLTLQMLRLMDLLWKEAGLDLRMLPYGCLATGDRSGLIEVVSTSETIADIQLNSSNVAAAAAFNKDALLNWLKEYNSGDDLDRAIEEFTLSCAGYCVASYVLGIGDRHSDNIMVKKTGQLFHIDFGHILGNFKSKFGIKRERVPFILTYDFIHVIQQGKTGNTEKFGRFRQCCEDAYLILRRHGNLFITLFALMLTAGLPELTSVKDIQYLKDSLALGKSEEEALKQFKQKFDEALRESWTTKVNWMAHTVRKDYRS
Summary of the method: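 Reported Kd (nM) reflects inhibitor binding to the kinase, as measured by KINOMEscan technology.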

kinase enzymes [3] = biological target: T3, kinase enzymes (Homo sapiens, UniProt P42345); experiment: Enzyme binding assay (KINOMEscan, DiscoveRx), further kinases of Table A; conditions: MTOR_h
T3 construct: purchased DiscoveRx Corporation, San Diego (contract service, KINOMEscan)
Summary of the method: as §2

kinase enzymes [4] = biological target: T4, kinase enzymes (Homo sapiens, UniProt P42336); experiment: as above; conditions: PIK3Cα_h
T4 construct: purchased DiscoveRx Corporation, San Diego (contract service, KINOMEscan)
T4 sequence (P42336 whole entry): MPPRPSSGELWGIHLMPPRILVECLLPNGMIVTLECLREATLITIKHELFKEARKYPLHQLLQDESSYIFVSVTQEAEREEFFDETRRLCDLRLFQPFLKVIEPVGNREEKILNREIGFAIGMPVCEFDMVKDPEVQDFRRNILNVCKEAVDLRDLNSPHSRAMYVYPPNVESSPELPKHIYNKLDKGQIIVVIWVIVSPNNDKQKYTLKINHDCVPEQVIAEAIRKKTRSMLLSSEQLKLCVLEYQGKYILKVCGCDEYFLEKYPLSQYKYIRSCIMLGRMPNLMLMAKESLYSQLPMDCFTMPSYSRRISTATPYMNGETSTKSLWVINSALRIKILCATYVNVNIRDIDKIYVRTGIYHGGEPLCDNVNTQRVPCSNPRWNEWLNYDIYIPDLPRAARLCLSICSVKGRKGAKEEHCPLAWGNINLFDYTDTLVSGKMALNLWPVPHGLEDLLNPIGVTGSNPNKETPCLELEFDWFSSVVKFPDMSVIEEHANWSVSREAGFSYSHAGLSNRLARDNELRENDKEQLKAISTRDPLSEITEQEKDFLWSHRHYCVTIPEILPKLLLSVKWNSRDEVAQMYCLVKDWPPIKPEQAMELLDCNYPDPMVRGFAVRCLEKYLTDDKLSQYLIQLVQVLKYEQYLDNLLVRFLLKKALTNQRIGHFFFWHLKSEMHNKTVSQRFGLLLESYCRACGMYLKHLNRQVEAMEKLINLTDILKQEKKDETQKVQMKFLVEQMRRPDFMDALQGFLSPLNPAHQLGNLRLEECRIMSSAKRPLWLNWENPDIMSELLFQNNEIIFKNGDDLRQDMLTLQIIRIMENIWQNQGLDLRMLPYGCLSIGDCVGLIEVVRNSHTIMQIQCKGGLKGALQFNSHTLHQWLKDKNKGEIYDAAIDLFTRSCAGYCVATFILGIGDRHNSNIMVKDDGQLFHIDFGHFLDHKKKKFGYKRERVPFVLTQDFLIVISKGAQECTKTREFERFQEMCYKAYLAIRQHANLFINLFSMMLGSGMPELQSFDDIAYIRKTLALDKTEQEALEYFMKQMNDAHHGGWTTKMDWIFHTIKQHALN
Summary of the method: as §2

kinase enzymes [5] = biological target: T5, kinase enzymes (Homo sapiens, UniProt P48736); experiment: as above; conditions: PIK3Cγ_h
T5 construct: purchased DiscoveRx Corporation, San Diego (contract service, KINOMEscan)
T5 sequence (P48736 whole entry): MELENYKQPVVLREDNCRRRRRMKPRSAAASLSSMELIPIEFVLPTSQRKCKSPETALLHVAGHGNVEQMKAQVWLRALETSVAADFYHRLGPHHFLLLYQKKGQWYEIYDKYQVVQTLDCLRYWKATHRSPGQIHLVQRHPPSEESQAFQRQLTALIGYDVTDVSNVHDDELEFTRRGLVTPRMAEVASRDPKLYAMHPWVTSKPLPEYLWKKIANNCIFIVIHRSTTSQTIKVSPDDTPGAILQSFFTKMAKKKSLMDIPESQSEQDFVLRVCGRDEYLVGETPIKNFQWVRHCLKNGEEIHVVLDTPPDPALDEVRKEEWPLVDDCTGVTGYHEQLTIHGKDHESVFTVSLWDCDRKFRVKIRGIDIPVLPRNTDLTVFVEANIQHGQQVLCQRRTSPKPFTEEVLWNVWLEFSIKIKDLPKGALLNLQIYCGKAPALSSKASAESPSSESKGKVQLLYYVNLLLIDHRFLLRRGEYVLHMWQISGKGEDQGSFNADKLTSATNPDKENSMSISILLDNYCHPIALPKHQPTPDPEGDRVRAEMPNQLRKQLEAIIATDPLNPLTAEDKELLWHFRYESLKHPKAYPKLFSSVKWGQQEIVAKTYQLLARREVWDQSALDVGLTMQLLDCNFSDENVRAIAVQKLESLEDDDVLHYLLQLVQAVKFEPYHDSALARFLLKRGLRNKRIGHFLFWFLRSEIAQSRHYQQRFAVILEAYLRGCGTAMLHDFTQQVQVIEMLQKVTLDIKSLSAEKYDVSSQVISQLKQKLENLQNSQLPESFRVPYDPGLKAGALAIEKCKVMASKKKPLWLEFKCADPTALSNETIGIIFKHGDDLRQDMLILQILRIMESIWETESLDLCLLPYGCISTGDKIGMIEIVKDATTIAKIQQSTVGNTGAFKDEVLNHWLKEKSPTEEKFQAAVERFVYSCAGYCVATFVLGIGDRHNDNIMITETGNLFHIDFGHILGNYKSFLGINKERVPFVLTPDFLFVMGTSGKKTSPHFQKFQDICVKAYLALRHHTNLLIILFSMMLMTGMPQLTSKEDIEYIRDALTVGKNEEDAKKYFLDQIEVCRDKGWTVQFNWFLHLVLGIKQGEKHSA
Summary of the method: as §2

SMILES | IC50 ([1]; Homo sapiens, PC-3, 1 h) | IC50 ([2]; Homo sapiens, PC-3, 1 h) | melting point | Kd (PI3Kδ) | Kd (PI3Kβ) | Kd (kinase enzymes [3]) | Kd (kinase enzymes [4]) | Kd (kinase enzymes [5]) | IC50 [1] | IC50 [2]
COCCN(C)Cc1cc(C2CCCN2c2cc(F)cc(F)c2)c2nc(N3CCOCC3)cnc2c1 (centres unmarked) [Compound 112] | 174 nM | ~62 nM | 80 °C | 204 nM | 1 nM | > 30200 nM | 955 nM | 2400 nM | – | –
Cc1c(F)cccc1NCc1cc(C(=O)N(C)C)cc2ncc(N3CCOCC3)nc12 [Compound 382] | 513 nM | 91 nM | 150 °C | 5010 nM | 17 nM | > 30200 nM | > 30200 nM | > 30200 nM | – | –
CC(Nc1cc(F)cc(F)c1)c1cc(C(=O)NS(N)(=O)=O)cc2ncc(N3CCOCC3)nc12 (single isomer, unassigned) [Compound 243a] | > 513 nM | > 513 nM | 160 °C | 69 nM | 0.5 nM | 1480 nM | 39 nM | 100 nM | – | –
CC(Nc1cccc(F)c1)c1cc(C(=O)NCC(=O)O)cc2ncc(N3CCOCC3)nc12 (single isomer, unassigned) [Compound 393b] | – | – | 196 °C | 25700 nM | 2290 nM | 15800 nM | 11000 nM | 6610 nM | > 513 nM | > 513 nM
CC(Nc1cccc(F)c1)c1cc(C(=O)N2CCC[C@H]2CO)cc2ncc(N3CCOCC3)nc12 (single isomer, unassigned) [Compound 116] | – | – | 332 °C | ≥ 30200 nM | 2880 nM | > 30200 nM | > 30200 nM | > 30200 nM | > 513 nM | > 513 nM
CC(Nc1cccc(F)c1)c1cc(C(=O)NC[C@@H](C)O)cc2ncc(N3CCOCC3)nc12 (single isomer, unassigned) [Compound 338a] | – | – | 89.8 °C | 1070 nM | 11 nM | 25700 nM | 1510 nM | 7240 nM | 115 nM | 68 nM
CC(Nc1cc(C(=O)N(C)C)cc2ncc(N3CCOCC3)nc12)c1cc(F)cc(F)c1 (centres unmarked) [Compound 402] | > 513 nM | > 513 nM | 80 °C | 4070 nM | 44 nM | > 30200 nM | 4470 nM | > 30200 nM | – | –
